Patent publication US20250222146A1, “Radiopharmaceuticals Targeting Somatostatin Receptor 2 and Uses Thereof” (RayzeBio, Inc., priority 2023, published 2025)
Where two headings read alike, the source gives them in different places. Numbered stars: 1 amine (or outer) side, 2 acyl side, 3 side chain; on linkers, the order of the positions; unused ones are H or OH. Square brackets hold non-standard residues; d marks the D form. Side chains are listed from the residue outwards. Peptide text beside a SMILES is read from it. * marks the point of attachment. ξ: configuration not given here. DOTA(Lu)NH(CH2)6NHCOCH2 = O=C(CN1CCN2CCN3CCN(CC1)CC(=O)[O][Lu]([O]C(=O)C2)[O]C(=O)C3)NCCCCCCNC(=O)C*; DOTA(Lu) = O=C1CN2CCN3CCN(CC(=O)*)CCN(CC2)CC(=O)[O][Lu]([O]1)[O]C(=O)C3; X4 = C[C@@H](c1ccccc1)[C@H](N[*:1])C(=O)[*:2]; ξDihydroorotoyl = O=C1CC(C(=O)*)NC(=O)N1; Phe(4-NH2) = Nc1ccc(C[C@H](N)C(=O)O)cc1; 3Pal = N[C@@H](Cc1cccnc1)C(=O)O; 4Pal = N[C@@H](Cc1ccncc1)C(=O)O; NMeOrn = CN[C@@H](CCCN)C(=O)O; NMehCys = CN[C@@H](CCS)C(=O)O; NMeK = CN[C@@H](CCCCN)C(=O)O; NMeC = CN[C@@H](CS)C(=O)O; NMeA = CN[C@@H](C)C(=O)O; Ahx = NCCCCCC(=O)O

Biological target: SSTR2 (Homo sapiens, UniProt P30874)
Sequence (P30874 whole entry): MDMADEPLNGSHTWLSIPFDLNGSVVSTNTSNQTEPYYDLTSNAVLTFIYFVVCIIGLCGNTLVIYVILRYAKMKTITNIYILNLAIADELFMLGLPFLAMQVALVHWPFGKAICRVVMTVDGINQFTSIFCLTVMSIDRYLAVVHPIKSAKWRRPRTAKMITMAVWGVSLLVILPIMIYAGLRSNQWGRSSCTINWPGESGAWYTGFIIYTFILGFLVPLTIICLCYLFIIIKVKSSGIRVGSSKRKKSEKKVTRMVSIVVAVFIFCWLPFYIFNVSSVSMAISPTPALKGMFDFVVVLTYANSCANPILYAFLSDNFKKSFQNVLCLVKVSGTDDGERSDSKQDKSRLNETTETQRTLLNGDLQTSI
Experiment: SSTR binding affinity by radioligand binding competition assay ([125I]-Tyr11-Somatostatin, membrane extracts)
Experimental: Macrocyclic peptides in this invention were tested for binding to SSTR protein by a radioligand binding competition assay. For radioligand binding assay, competition binding is performed in duplicate in the wells of a 96 well plate containing binding buffer (HEPES 25 mM pH 7.4, MgCl2 5 mM, CaCl2 1 mM, BSA 0.5%, Saponine 10 μg/ml)), membrane extracts (0.6 μg protein/well), radiotracer ([125I]-Tyr11-Somatostatin, Perkin Elmer NEX389) and test compound. Nonspecific binding is determined by co-incubation with 200-fold excess of cold competitor (SST28). The samples are incubated in a final volume of 0.1 ml for 60 min at room temperature and then filtered over UniFilter-96 GF/C (Revvity 6055690) filter plates. Filters are washed six times with 0.5 ml of ice-cold washing buffer (HEPES 25 mM pH 7.4, MgCl2 5 mM, CaCl2 1 mM) and 50 μl of Microscint 20 (Packard) are added in each well. The plates are incubated 15 min on an orbital shaker and then counted with a TopCount™ for 1 min/well. For IC50 to Ki determination, the Cheng Prusoff equation is used: Ki=IC50/(1+ [tracer]/Kd). [Tracer] is 0.1 nM as mentioned above.

[1] = radioligand competition, [125I]-Tyr11-Somatostatin 0.1 nM, membrane extracts, Ki from IC50 by Cheng Prusoff, read-out: SSTR2 Ki
[2] = SSTR2 Ki, radioligand competition, [125I]-Tyr11-Somatostatin 0.1 nM, membrane extracts, Ki from IC50 by Cheng Prusoff
[3] = read-out: SSTR2 Ki, radioligand competition, [125I]-Tyr11-Somatostatin 0.1 nM, membrane extracts, Ki from IC50 by Cheng Prusoff

Structure (SMILES)	Ki [1] [nM]	Ki (read-out: SSTR2 Ki) [nM]	further results
C[C@@H](O)[C@@H]1NC(=O)[C@H](CC2CCNCC2)NC(=O)[C@@H]([C@@H](C)c2c[nH]c3ccccc23)NC(=O)[C@H](Cc2ccc(O)cc2)NC(=O)[C@H](CCCCNC(=O)CCC2C(=O)[O][Ga]3[O]C(=O)CN4CCN(CCN2CC4)CC(=O)[O]3)N(C)C(=O)[C@H](Cc2ccccc2)NC1=O (mixture of isomers) [RB-0006285]	1 to 3.33		
C[C@@H](O)[C@@H]1NC(=O)[C@H](CN2CCNCC2)NC(=O)[C@@H]([C@@H](C)c2c[nH]c3ccccc23)NC(=O)[C@H](Cc2ccc(O)cc2)NC(=O)[C@H](CCCCNC(=O)CCC2C(=O)[O][Ga]3[O]C(=O)CN4CCN(CCN2CC4)CC(=O)[O]3)N(C)C(=O)[C@H](Cc2ccccc2)NC1=O (mixture of isomers) [RB-0006417]	1 to 3.33		
CC(C)[C@@H]1NC(=O)[C@H](CCCCN)NC(=O)[C@@H](Cc2ccc(NC(N)=O)cc2)NC(=O)[C@H](Cc2ccc(O)cc2)NC(=O)[C@H](C)N(C)C(=O)[C@H](Cc2ccccc2)NC1=O [RB-0002328] (HELM PEPTIDE1{F.[meA].Y.[NC(=O)Nc1ccc(C[C@@H](N[*:1])C(=O)[*:2])cc1].K.V}$PEPTIDE1,PEPTIDE1,1:R1-6:R2$$$V2.0)		1 to 3.33	
CC(=O)NCCCC[C@H]1C(=O)N[C@@H](Cc2ccc(O)cc2)C(=O)N[C@H](Cc2c[nH]c3ccccc23)C(=O)N[C@@H](CCCCN)C(=O)N[C@@H](C(C)C)C(=O)N[C@@H](Cc2ccccc2)C(=O)N1C [RB-0002329] (HELM PEPTIDE1{F.[CN([C@@H](CCCCN[*:3])C(=O)[*:2])[*:1]].Y.[dW].K.V}|PEPTIDE2{[ac]}$PEPTIDE1,PEPTIDE2,2:R3-1:R2|PEPTIDE1,PEPTIDE1,1:R1-6:R2$$$V2.0)		1 to 3.33	
CC(=O)NCCCC[C@@H]1C(=O)N[C@@H](Cc2ccc(O)cc2)C(=O)N[C@H](Cc2c[nH]c3ccccc23)C(=O)N[C@@H](CCCCN)C(=O)N[C@@H](C(C)C)C(=O)N[C@@H](Cc2ccccc2)C(=O)N1C [RB-0002593] (HELM PEPTIDE1{F.[CN([C@H](CCCCN[*:3])C(=O)[*:2])[*:1]].Y.[dW].K.V}|PEPTIDE2{[ac]}$PEPTIDE1,PEPTIDE2,2:R3-1:R2|PEPTIDE1,PEPTIDE1,1:R1-6:R2$$$V2.0)		3.33 to 10	
C[C@@H](O)[C@@H]1NC(=O)[C@H](CCCCN)NC(=O)[C@@H](Cc2c[nH]c3ccccc23)NC(=O)[C@H](Cc2ccc(O)cc2)NC(=O)[C@H](C)N(C)C(=O)[C@H](Cc2ccccc2)NC1=O [RB-0002594]		< 1	
CC(C)[C@@H]1NC(=O)[C@H](CCCCN)NC(=O)[C@@H](Cc2c[nH]c3ccccc23)NC(=O)[C@H](Cc2ccc(O)c(O)c2)NC(=O)[C@H](C)N(C)C(=O)[C@H](Cc2ccccc2)NC1=O [RB-0002595]		< 1	
CC(C)[C@@H]1NC(=O)[C@H](CCCCN)NC(=O)[C@@H](Cc2c[nH]c3ccccc23)NC(=O)[C@H](C(c2ccccc2)c2ccccc2)NC(=O)[C@H](C)N(C)C(=O)[C@H](Cc2ccccc2)NC1=O [RB-0002596] (HELM PEPTIDE1{[O=C([C@@H](N[*:1])C(c1ccccc1)c1ccccc1)[*:2]].[dW].K.V.F.[meA]}$PEPTIDE1,PEPTIDE1,1:R1-6:R2$$$V2.0)		< 1	
CC(C)[C@@H]1NC(=O)[C@H](CCCCN)NC(=O)[C@@H](Cc2c[nH]c3ccccc23)NC(=O)[C@H](Cc2ccc(NC(=O)C3CC(=O)NC(=O)N3)cc2)NC(=O)[C@H](C)N(C)C(=O)[C@H](Cc2ccccc2)NC1=O (stereo partly drawn) [RB-0002597] (cyclo(F[NMeA][Phe(4-NH2)](ξDihydroorotoyl)[dW]KV))		1 to 3.33	
CC(C)[C@@H]1NC(=O)[C@H](CCCCN)NC(=O)[C@@H](Cc2c[nH]c3ccccc23)NC(=O)[C@H](Cc2ccc(O)cc2)NC(=O)[C@H](CCCCNC(=O)CCCCCNC(=O)CN2CCN3CCN4CCN(CC2)CC(=O)[O][Lu]([O]C(=O)C3)[O]C(=O)C4)N(C)C(=O)[C@H](Cc2ccccc2)NC1=O [RB-0002670] (cyclo(F[NMeK]([Ahx-DOTA(Lu)])Y[dW]KV))			Ki [2]: < 1 nM
CC(C)[C@@H]1NC(=O)[C@H](CCCCN)NC(=O)[C@@H](Cc2c[nH]c3ccccc23)NC(=O)[C@H](Cc2ccc(O)cc2)NC(=O)[C@H](CCCNC(=O)CCCCCNC(=O)CN2CCN3CCN4CCN(CC2)CC(=O)[O][Lu]([O]C(=O)C3)[O]C(=O)C4)N(C)C(=O)[C@H](Cc2ccccc2)NC1=O [RB-0002672] (cyclo(F[NMeOrn]([Ahx-DOTA(Lu)])Y[dW]KV))	1 to 3.33		
CC(C)[C@@H]1NC(=O)[C@H](CCCCN)NC(=O)[C@@H](Cc2c[nH]c3ccccc23)NC(=O)[C@H](Cc2ccc(O)cc2)NC(=O)[C@H](CSCC(=O)NCCCCCCNC(=O)CN2CCN3CCN4CCN(CC2)CC(=O)[O][Lu]([O]C(=O)C3)[O]C(=O)C4)N(C)C(=O)[C@H](Cc2ccccc2)NC1=O [RB-0002674] (cyclo(F[NMeC](DOTA(Lu)NH(CH2)6NHCOCH2)Y[dW]KV))			Ki [2]: 1 to 3.33 nM
CC(C)[C@@H]1NC(=O)[C@H](CCCCN)NC(=O)[C@@H](Cc2c[nH]c3ccccc23)NC(=O)[C@H](Cc2ccc(O)cc2)NC(=O)[C@H](CCC(=O)NCCCCCCNC(=O)CN2CCN(CC(=O)O)CCN(CC(=O)O)CCN(CC(=O)O)CC2)N(C)C(=O)[C@H](Cc2ccccc2)NC1=O [RB-0002678] (HELM PEPTIDE1{F.[CN([C@@H](CCC(=O)[*:3])C(=O)[*:2])[*:1]].Y.[dW].K.V}|CHEM1{[O=C(O)CN1CCN(CC(=O)O)CCN(CC(=O)NCCCCCCN[*:1])CCN(CC(=O)O)CC1]}$PEPTIDE1,CHEM1,2:R3-1:R1|PEPTIDE1,PEPTIDE1,1:R1-6:R2$$$V2.0)			Ki [3]: 3.33 to 10 nM
CCN(C)CC(=O)[O][Lu]1[O]C(=O)CN(C)CCN(CCN(CC)CC(=O)NCCCCCCNC(=O)CCC[C@H]2C(=O)N[C@@H](CC3=CC=C(O)C=C3)C(=O)N[C@H](CC3=CNC4=C3C=CC=C4)C(=O)N[C@@H](CCCCN)C(=O)N[C@@H](C(C)C)C(=O)N[C@@H](CC3=CC=CC=C3)C(=O)N2C)CC(=O)[O]1 [RB-0002680] (HELM PEPTIDE1{F.[CN([C@@H](CCCC(=O)[*:3])C(=O)[*:2])[*:1]].Y.[dW].K.V}|CHEM1{[CCN(C)CC(=O)[O][Lu]1[O]C(=O)CN(C)CCN(CCN(CC)CC(=O)NCCCCCCN[*:1])CC(=O)[O]1]}$PEPTIDE1,CHEM1,2:R3-1:R1|PEPTIDE1,PEPTIDE1,1:R1-6:R2$$$V2.0)	1 to 3.33		
C[C@@H](O)[C@@H]1NC(=O)[C@H](CCCCN)NC(=O)[C@@H](Cc2c[nH]c3ccccc23)NC(=O)[C@H](Cc2cccnc2)NC(=O)[C@H](CSCC(=O)NCCCCCCNC(=O)CN2CCN3CCN4CCN(CC2)CC(=O)[O][Lu]([O]C(=O)C3)[O]C(=O)C4)N(C)C(=O)[C@H](Cc2ccccc2)NC1=O [RB-0002946] (cyclo([3Pal][dW]KTF[NMeC](DOTA(Lu)NH(CH2)6NHCOCH2)))	10 to 33.3		
C[C@@H](O)[C@@H]1NC(=O)[C@H](CCCCN)NC(=O)[C@@H](Cc2c[nH]c3ccccc23)NC(=O)[C@H](Cc2ccncc2)NC(=O)[C@H](CSCC(=O)NCCCCCCNC(=O)CN2CCN3CCN4CCN(CC2)CC(=O)[O][Lu]([O]C(=O)C3)[O]C(=O)C4)N(C)C(=O)[C@H](Cc2ccccc2)NC1=O [RB-0002947] (cyclo([4Pal][dW]KTF[NMeC](DOTA(Lu)NH(CH2)6NHCOCH2)))	3.33 to 10		
C[C@@H](O)[C@@H]1NC(=O)[C@H](CCCCN)NC(=O)[C@@H](Cc2c[nH]c3ccccc23)NC(=O)[C@H](Cc2cccnc2)NC(=O)[C@H](CCSCC(=O)NCCCCCCNC(=O)CN2CCN3CCN4CCN(CC2)CC(=O)[O][Lu]([O]C(=O)C3)[O]C(=O)C4)N(C)C(=O)[C@H](Cc2ccccc2)NC1=O [RB-0003000] (cyclo([3Pal][dW]KTF[NMehCys](DOTA(Lu)NH(CH2)6NHCOCH2)))	< 1		
C[C@@H](O)[C@@H]1NC(=O)[C@H](CCCCN)NC(=O)[C@@H](Cc2c[nH]c3ccccc23)NC(=O)[C@H](Cc2ccncc2)NC(=O)[C@H](CCSCC(=O)NCCCCCCNC(=O)CN2CCN3CCN4CCN(CC2)CC(=O)[O][Lu]([O]C(=O)C3)[O]C(=O)C4)N(C)C(=O)[C@H](Cc2ccccc2)NC1=O [RB-0003002] (cyclo([4Pal][dW]KTF[NMehCys](DOTA(Lu)NH(CH2)6NHCOCH2)))	< 1		
C[C@@H](O)[C@@H]1NC(=O)[C@H](CCCCN)NC(=O)[C@@H](Cc2c[nH]c3ccccc23)NC(=O)[C@H](Cc2ccc(O)cc2)NC(=O)[C@H](CCCCC(=O)NCCCCCCNC(=O)CN2CCN(CC(=O)O)CCN(CC(=O)O)CCN(CC(=O)O)CC2)N(C)C(=O)[C@H](Cc2ccccc2)NC1=O [RB-0003055]			Ki [3]: < 1 nM
CCN(C)CC(=O)[O][Lu]1[O]C(=O)CN(C)CCN(CCN(CC)CC(=O)NCCCCCC(=O)NCCCCC[C@H]2C(=O)N[C@@H](Cc3ccc(O)cc3)C(=O)N[C@H](Cc3c[nH]c4ccccc34)C(=O)N[C@@H](CCCCN)C(=O)N[C@@H]([C@@H](C)O)C(=O)N[C@@H](Cc3ccccc3)C(=O)N2C)CC(=O)[O]1 [RB-0003057]	< 1		
C[C@@H](O)[C@@H]1NC(=O)[C@H](CCCCN)NC(=O)[C@@H](Cc2c[nH]c3ccccc23)NC(=O)[C@H]([C@@H](C)c2ccccc2)NC(=O)[C@H](CCSCC(=O)NCCCCCCNC(=O)CN2CCN3CCN4CCN(CC2)CC(=O)[O][Lu]([O]C(=O)C3)[O]C(=O)C4)N(C)C(=O)[C@H](Cc2ccccc2)NC1=O [RB-0003136] (cyclo(F[NMehCys](DOTA(Lu)NH(CH2)6NHCOCH2)[X4][dW]KT))	1 to 3.33		
